This note sets out measurements from PMC3234597, “Two Panels of Steroid Receptor Luciferase Reporter Cell Lines for Compound Profiling” (Combinatorial Chemistry & High Throughput Screening, 2011).

Format in all cases: cell-based
In one test the target is T1, human ERα (full-length) (Homo sapiens, UniProt P03372, G400V).
T1 sequence (P03372 1-595 G400V): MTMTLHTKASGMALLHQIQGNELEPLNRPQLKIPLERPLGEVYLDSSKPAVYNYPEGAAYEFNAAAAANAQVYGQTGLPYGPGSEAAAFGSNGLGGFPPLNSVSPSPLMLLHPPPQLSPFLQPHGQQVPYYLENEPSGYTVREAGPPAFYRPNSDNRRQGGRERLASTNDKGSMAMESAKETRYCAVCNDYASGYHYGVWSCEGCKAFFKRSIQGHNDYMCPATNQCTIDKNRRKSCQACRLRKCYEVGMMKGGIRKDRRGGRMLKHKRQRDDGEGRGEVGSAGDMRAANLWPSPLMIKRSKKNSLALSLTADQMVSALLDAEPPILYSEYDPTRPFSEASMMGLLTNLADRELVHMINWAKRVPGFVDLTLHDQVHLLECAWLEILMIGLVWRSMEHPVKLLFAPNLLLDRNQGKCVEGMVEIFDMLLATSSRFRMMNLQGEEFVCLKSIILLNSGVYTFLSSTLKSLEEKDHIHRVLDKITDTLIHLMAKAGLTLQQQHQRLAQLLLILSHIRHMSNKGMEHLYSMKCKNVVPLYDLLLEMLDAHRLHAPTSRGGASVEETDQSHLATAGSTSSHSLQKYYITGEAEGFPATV
The test is described as follows: U2OS-ERα/3xERE luciferase reporter cell line (full-length receptor). For orientation: A reporter such as luciferase makes a cellular process visible.

In test [1] the target is T2, ERα^wt-LBD fused to Gal4-DBD (Homo sapiens, UniProt P03372).
T2 construct: ERα-LBD (amino acids 303-595) based on GenBank NM_000125; expressed in transfected cells; host or cells: U2OS
T2 sequence (P03372 303-595): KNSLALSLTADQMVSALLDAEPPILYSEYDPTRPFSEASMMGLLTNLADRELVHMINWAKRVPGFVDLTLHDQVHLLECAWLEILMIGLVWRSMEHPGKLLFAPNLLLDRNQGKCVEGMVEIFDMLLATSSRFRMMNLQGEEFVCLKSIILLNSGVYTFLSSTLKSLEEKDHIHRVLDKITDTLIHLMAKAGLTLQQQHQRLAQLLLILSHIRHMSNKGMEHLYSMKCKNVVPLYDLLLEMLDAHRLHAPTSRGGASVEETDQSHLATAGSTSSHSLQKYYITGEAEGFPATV
The test is described as follows: U2OS-ERα^wt-LBD/9xGal4UAS luciferase reporter cell line.

The target in test [2] is T3, ERα^G420C-LBD fused to Gal4-DBD (Homo sapiens, UniProt P03372, G420C).
T3 construct: expressed in transfected cells; host or cells: U2OS
T3 sequence (P03372 311-547 G420C limits assumed): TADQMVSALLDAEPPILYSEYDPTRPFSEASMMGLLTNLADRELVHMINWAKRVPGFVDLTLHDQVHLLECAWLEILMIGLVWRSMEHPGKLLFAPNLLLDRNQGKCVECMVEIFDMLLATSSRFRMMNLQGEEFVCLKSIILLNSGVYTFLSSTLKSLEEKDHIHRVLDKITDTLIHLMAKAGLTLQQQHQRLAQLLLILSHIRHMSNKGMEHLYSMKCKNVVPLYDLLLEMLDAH
The test is described as follows: U2OS-ERα^G420C-LBD/9xGal4UAS luciferase reporter cell line.

In test [3] the target is T4, human GR (full-length) (Homo sapiens, UniProt P04150).
T4 construct: expression vectors encoding full-length steroid receptors: pcDNA3-hAR and pcDNA3-hGR; host or cells: U2OS
T4 sequence (P04150 1-777): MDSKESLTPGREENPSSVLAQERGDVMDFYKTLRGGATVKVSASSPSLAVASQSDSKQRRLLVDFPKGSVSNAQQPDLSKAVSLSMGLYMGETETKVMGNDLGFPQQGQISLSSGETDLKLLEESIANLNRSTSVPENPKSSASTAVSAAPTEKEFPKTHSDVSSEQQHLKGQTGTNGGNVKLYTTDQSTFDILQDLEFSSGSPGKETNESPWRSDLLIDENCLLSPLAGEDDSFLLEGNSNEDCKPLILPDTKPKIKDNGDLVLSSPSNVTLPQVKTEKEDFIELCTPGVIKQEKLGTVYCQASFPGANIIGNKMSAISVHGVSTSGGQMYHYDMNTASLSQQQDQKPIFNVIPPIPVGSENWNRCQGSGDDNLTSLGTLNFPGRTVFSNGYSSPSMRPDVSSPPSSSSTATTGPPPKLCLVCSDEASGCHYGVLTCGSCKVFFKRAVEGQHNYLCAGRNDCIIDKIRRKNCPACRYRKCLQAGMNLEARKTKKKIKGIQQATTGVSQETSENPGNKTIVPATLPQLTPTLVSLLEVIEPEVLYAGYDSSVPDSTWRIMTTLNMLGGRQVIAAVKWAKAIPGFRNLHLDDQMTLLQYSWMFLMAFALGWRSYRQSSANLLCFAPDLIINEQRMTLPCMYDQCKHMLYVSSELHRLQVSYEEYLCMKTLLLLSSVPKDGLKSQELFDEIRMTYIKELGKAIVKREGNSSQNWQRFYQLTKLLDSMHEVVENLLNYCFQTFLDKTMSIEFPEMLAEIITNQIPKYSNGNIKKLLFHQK
The test is described as follows: U2OS-GR/3xGRE luciferase reporter cell line (full-length receptor).

Test [4] concerns the target T4, human GR (full-length). The test is described as follows: U2OS-GR/MMTV luciferase reporter cell line (full-length receptor).
Another test addresses T5, GR-LBD fused to Gal4-DBD (Homo sapiens, UniProt P04150).
T5 construct: expressed in transfected cells; host or cells: U2OS
T5 sequence (P04150 524-758 limits assumed): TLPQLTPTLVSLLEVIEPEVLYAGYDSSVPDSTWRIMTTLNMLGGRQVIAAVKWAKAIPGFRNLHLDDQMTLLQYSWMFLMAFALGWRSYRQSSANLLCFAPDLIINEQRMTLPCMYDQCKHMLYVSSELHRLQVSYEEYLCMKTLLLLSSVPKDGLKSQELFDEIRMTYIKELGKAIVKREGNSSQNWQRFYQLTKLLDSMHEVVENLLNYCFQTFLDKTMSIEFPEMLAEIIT
The test is described as follows: U2OS-GR-LBD/9xGal4UAS luciferase reporter cell line.

The next test has as its target T6, human ERβ (full-length) (Homo sapiens, UniProt Q92731).
T6 construct: expression vectors encoding full-length steroid receptors: pcDNA3-hERα and pcDNA3-ERβ; expressed in transfected cells; host or cells: U2OS
The test is described as follows: U2OS-ERβ/3xERE luciferase reporter cell line (full-length receptor).

The target of test [5] is T7, ERβ-LBD fused to Gal4-DBD (Homo sapiens, UniProt Q92731).
T7 construct: region comprising ERβ-LBD and a piece of the hinge region; expressed in transfected cells; host or cells: U2OS
T7 sequence (Q92731 264-498 limits assumed): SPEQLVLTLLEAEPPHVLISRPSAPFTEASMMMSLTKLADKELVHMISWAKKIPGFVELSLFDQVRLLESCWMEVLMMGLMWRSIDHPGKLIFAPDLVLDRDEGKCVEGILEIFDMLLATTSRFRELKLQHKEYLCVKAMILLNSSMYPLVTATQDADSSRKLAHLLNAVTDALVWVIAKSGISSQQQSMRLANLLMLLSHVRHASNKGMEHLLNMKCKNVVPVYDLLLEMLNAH
The test is described as follows: U2OS-ERβ-LBD/9xGal4UAS luciferase reporter cell line.

For another test, the target named is T8, human MR (full-length) (Homo sapiens, UniProt P08235).
T8 construct: expression vectors encoding full-length steroid receptors: pcDNA3-hAR, pcDNA3-hGR and pcDNA3-hMR; expressed in transfected cells; host or cells: U2OS
T8 sequence (P08235 1-984): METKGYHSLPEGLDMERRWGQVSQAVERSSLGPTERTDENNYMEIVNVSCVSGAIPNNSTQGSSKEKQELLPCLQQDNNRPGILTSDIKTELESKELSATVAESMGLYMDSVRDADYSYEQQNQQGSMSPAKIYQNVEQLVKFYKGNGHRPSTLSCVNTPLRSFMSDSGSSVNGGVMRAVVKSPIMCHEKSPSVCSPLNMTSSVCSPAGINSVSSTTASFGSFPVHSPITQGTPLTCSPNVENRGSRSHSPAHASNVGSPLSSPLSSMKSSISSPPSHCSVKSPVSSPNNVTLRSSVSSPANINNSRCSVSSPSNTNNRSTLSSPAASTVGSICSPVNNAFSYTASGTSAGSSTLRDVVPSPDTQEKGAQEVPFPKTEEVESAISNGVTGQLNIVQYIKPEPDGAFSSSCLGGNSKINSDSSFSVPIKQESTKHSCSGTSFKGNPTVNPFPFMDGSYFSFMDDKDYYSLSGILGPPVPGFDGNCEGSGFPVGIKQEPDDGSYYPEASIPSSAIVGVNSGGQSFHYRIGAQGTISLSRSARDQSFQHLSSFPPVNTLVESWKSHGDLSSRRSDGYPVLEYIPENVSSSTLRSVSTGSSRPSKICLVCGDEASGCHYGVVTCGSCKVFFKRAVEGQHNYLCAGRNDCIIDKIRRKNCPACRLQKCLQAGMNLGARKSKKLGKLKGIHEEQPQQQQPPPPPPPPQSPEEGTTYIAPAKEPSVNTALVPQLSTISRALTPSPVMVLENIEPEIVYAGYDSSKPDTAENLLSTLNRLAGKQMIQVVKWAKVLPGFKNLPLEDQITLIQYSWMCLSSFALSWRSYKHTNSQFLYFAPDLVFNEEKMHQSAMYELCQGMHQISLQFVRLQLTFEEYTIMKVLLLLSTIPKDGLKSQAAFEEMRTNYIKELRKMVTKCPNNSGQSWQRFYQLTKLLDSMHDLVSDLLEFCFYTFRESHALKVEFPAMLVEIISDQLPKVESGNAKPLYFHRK
The test is described as follows: U2OS-MR/MMTV luciferase reporter cell line (full-length receptor).

Another test deals with T9, MR-LBD fused to Gal4-DBD (Homo sapiens, UniProt P08235).
T9 construct: MR-LBD was cloned by RT-PCR from total RNA isolated from HEK293 cells; expressed in transfected cells; host or cells: U2OS
T9 sequence (P08235 726-964 limits assumed): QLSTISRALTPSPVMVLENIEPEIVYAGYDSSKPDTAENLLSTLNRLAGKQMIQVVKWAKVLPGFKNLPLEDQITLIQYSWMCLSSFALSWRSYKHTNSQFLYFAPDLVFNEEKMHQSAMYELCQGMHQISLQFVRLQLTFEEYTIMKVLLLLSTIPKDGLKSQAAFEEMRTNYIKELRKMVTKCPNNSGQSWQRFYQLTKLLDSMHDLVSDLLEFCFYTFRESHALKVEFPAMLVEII
The test is described as follows: U2OS-MR-LBD/9xGal4UAS luciferase reporter cell line.

The next test deals with T10, PR-LBD fused to Gal4-DBD (Homo sapiens, UniProt P06401).
T10 construct: PR-LBD region was PCR amplified using the following primer combination; host or cells: U2OS
T10 sequence (P06401 679-913 limits assumed): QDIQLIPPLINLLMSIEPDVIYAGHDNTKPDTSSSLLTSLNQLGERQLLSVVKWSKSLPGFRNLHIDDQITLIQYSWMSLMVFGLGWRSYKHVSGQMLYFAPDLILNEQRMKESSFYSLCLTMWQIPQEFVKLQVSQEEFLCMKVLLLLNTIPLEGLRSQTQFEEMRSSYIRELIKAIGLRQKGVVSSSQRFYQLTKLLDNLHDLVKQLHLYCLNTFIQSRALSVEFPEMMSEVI
The test is described as follows: U2OS-PR-LBD/9xGal4UAS luciferase reporter cell line.

Read-outs that look alike come from different tables or passages of the source.

As a reminder, the EC50 is the concentration that produces a half-maximal response. Usually IC50 stands for the concentration needed to halve the response being measured.

T6 sequence (Q92731 whole entry): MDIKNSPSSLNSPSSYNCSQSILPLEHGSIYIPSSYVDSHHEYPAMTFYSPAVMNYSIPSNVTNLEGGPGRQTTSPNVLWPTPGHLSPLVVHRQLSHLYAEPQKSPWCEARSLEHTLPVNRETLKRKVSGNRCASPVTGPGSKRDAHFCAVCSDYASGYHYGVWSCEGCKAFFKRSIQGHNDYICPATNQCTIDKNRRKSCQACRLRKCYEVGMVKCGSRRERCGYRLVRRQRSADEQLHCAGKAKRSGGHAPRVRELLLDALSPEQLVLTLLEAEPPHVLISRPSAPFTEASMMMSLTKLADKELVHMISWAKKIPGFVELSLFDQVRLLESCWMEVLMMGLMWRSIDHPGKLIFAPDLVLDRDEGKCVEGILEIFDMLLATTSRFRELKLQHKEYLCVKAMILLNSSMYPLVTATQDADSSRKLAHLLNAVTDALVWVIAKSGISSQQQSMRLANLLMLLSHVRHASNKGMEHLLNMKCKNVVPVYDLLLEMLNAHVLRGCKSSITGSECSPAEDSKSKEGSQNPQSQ

For the compound `CC(=O)S[C@@H]1CC2=CC(=O)CC[C@]2(C)[C@H]2CC[C@@]3(C)[C@@H](CC[C@@]34CCC(=O)O4)[C@H]12` [Spironolactone, spironolactone], the EC50 on human ERα (full-length) (Log EC50, agonist mode, ERα/3xERE, 20 h, value is log10 of molar EC50, mean ± SEM) was greater than 10 µM; in [1], greater than 10 µM; in test [2], greater than 10 µM; on human GR (full-length) [3], greater than 10 µM; at human GR (full-length) [4], greater than 10 µM; on GR-LBD fused to Gal4-DBD it was greater than 10 µM.
On to `CC(C)C(=O)Nc1ccc([N+](=O)[O-])c(C(F)(F)F)c1` [Flutamide, flutamide], for which the EC50 (at human ERα (full-length); in test [1]; in [2]; on human ERβ (full-length) (read-out: Log EC50 (converted)); in test [5] (read-out: Log EC50 (converted)); on human MR (full-length) (read-out: Log EC50 (converted))) was greater than 10 µM in each case. For the same compound, the EC50 on MR-LBD fused to Gal4-DBD (read-out: Log EC50 (converted)) and on PR-LBD fused to Gal4-DBD (read-out: Log EC50 (converted)) was greater than 10 µM in each case. Further, the IC50 at PR-LBD fused to Gal4-DBD (antagonist mode, PR-LBD/9xGal4UAS, log10 of molar IC50, mean ± SEM, read-out: Log IC50 (converted)) was greater than 10 µM.
As to `C[C@]12CC[C@H]3[C@@H](CCC4=CC(=O)CC[C@@]43C)[C@@H]1CC[C@@H]2O` [Testosterone, testosterone], the EC50 at human ERβ (full-length) was 0.49 µM; in test [5] it was 2.88 µM; at human GR (full-length) [3], greater than 10 µM; on human GR (full-length) [4], greater than 10 µM; at GR-LBD fused to Gal4-DBD, greater than 10 µM; at human MR (full-length), greater than 10 µM. The values for the EC50 at MR-LBD fused to Gal4-DBD and on PR-LBD fused to Gal4-DBD were greater than 10 µM and 0.0468 µM, respectively. Further, the 50% inhibitory concentration (IC50) at PR-LBD fused to Gal4-DBD is greater than 10 µM.
